Source: patent publication US20240150338A1, “COMPOUNDS AND USE THEREOF FOR TREATMENT OF NEURODEGENERATIVE, DEGENERATIVE AND METABOLIC DISORDERS” (University of Florida Research Foundation, Incorporated, priority 2021, published 2024)
pEC50: −log10 of the molar value.

How the values were obtained:
[1] = Microsomal stability assay; assay type: in vitro ADME; settings: 1 mg/ml human hepatic microsomes, 37° C., half-life by LC-MS/MS; yes = stability ≥15 minutes
Description: The metabolic stability of some test compounds was determined in hepatic human and mouse microsomes. The compound was incubated with 1 mg/ml human or mouse hepatic microsomes at 37° C. with continuous shaking. Aliquots were removed at various time points between 5 minutes and 2 hours and acetonitrile was added to quench the reactions and precipitate the proteins. Samples were then centrifuged through 0.45 μm filter plates and half-lives were determined by LC-MS/MS.

[2] = test system: PK1 neuroblastoma cells exposed to TPrP; assay: cells; assay type: cell-based; settings: Neuroblastoma cell, 96 h, read-out: TPrP EC50

With `CS(=O)(=O)c1ccc(Nc2nc(-c3ccncc3)c(CO)s2)cc1` [SR-33795, (2-((4-(Methylsulfonyl)phenyl)amino)-4-(pyridin-4-yl)thiazol-5-yl)methanol] the “Stabilty in human microsomes ≥ 15 minutes” value (“Stabilty” for short) [1] was “yes” and the pEC50 [2] was 6.46.

In the case of `CNS(=O)(=O)c1ccc(-c2csc(Nc3ccc(C(F)(F)F)cc3)n2)cc1` [SR-35726, N-methyl-4-(2-((4-(trifluoromethyl)phenyl)amino)thiazol-4-yl)benzenesulfonamide], the “Stabilty” value [1] was “yes” and the pEC50 [2] was 6.32.

For `Cc1cc(-c2nc(Nc3ccc(S(C)(=O)=O)cc3)sc2CO)ccn1` [SR-33799, (4-(2-Methylpyridin-4-yl)-2-((4-(methylsulfonyl)phenyl)amino)thiazol-5-yl)methanol], the “Stabilty” value [1] was “yes” and the pEC50 [2] was 7.22.

With `Cc1cc(-c2csc(Nc3ccc(S(N)(=O)=O)cc3)n2)cc(C)n1` [SR-33791, 4-((4-(2,6-Dimethylpyridin-4-yl)thiazol-2-yl)amino)benzenesulfonamide] the “Stabilty” value [1] was “yes” and the pEC50 [2] was 7.60.

For `O=S(=O)(O)c1ccc(Nc2nc(-c3ccncc3)c(CO)s2)cc1` [SR-33878, 4-((5-(Hydroxymethyl)-4-(pyridin-4-yl)thiazol-2-yl)amino)benzenesulfonic acid], the “Stabilty” value [1] was “yes” and the pEC50 [2] was 6.52.

In the case of `COc1cc(-c2csc(Nc3ccc(S(C)(=O)=O)c(Cl)c3)n2)cc(OC)n1` [SR-33787, N-(3-chloro-4-(methylsulfonyl)phenyl)-4-(2,6-dimethoxypyridin-4-yl)thiazol-2-amine], the “Stabilty” value [1] was “yes” and the pEC50 [2] was 7.10.

For `O=S(=O)(O)c1ccc(Nc2nc(-c3ccnc(Cl)c3)c(CO)s2)cc1` [SR-33527, 4-((4-(2-Chloropyridin-4-yl)-5-(hydroxymethyl)thiazol-2-yl)amino)benzenesulfonic acid], the “Stabilty” value [1] was “yes” and the pEC50 [2] was 6.80.

In the case of `Cc1cc(-c2nc(Nc3ccc(S(C)(=O)=O)c(Cl)c3)sc2CO)ccn1` [SR-33528, (2-((3-Chloro-4-(methylsulfonyl)phenyl)amino)-4-(2-methylpyridin-4-yl)thiazol-5-yl)methanol], the “Stabilty” value [1] was “yes” and the pEC50 [2] was 7.10.

For `CC(C)NS(=O)(=O)c1ccc(-c2nc(Nc3ccc(S(N)(=O)=O)cc3)sc2CO)cc1` [SR-34776, 4-(5-(Hydroxymethyl)-2-((4-sulfamoylphenyl)amino)thiazol-4-yl)-N-isopropylbenzenesulfonamide], the “Stabilty” value [1] was “yes” and the pEC50 [2] was 7.00.

In the case of `CS(=O)(=O)c1ccc(Nc2nc(-c3ccc(C(F)(F)F)cc3)cs2)cc1` [SR-35733, N-(4-(Methylsulfonyl)phenyl)-4-(4-(trifluoromethyl)phenyl)thiazol-2-amine], the “Stabilty” value [1] was “yes” and the pEC50 [2] was less than 6.30.

With `NS(=O)(=O)c1ccc(Nc2nc(-c3ccnc(Cl)c3)cs2)cc1` [SR-33125, 4-((4-(2-Chloropyridin-4-yl)thiazol-2-yl)amino)benzenesulfonamide] the “Stabilty” value [1] was “yes” and the pEC50 [2] was 7.46.

In the case of `Cc1cc(-c2csc(Nc3ccc(S(C)(=O)=O)c(Cl)c3)n2)ccn1` [SR-33127, N-(3-chloro-4-(methylsulfonyl)phenyl)-4-(2-methylpyridin-4-yl)thiazol-2-amine], the “Stabilty” value [1] was “yes” and the pEC50 [2] was 7.60.

With `CNS(=O)(=O)c1ccc(-c2csc(Nc3ccc(S(C)(=O)=O)c(F)c3)n2)cc1` [SR-35735, 4-(2-((3-Fluoro-4-(methylsulfonyl)phenyl)amino)thiazol-4-yl)-N-methylbenzenesulfonamide] the “Stabilty” value [1] was “yes” and the pEC50 [2] was 8.22.

In the case of `COc1cc(-c2csc(Nc3ccc(S(C)(=O)=O)c(Cl)c3)n2)ccn1` [SR-34993, N-(3-Chloro-4-(methylsulfonyl)phenyl)-4-(2-methoxypyridin-4-yl)thiazol-2-amine], the “Stabilty” value [1] was “yes” and the pEC50 [2] was 6.90.

In the case of `CNS(=O)(=O)c1ccc(-c2csc(Nc3ccc(S(C)(=O)=O)cc3)n2)cc1` [SR-34964, N-methyl-4-(2-((4-(methylsulfonyl)phenyl)amino)thiazol-4-yl)benzenesulfonamide], the “Stabilty” value [1] was “yes” and the pEC50 [2] was 6.98.

With `CS(=O)(=O)c1ccc(-c2csc(Nc3ccc(S(N)(=O)=O)cc3)n2)cc1` [SR-35729, 4-((4-(4-(Methylsulfonyl)phenyl)thiazol-2-yl)amino)benzenesulfonamide] the “Stabilty” value [1] was “yes” and the pEC50 [2] was 8.80.

For `Cc1cc(-c2csc(Nc3ccc(S(C)(=O)=O)c(C(F)(F)F)c3)n2)cc(C)n1` [SR-34984, 4-(2,6-Dimethylpyridin-4-yl)-N-(4-(methylsulfonyl)-3-(trifluoromethyl)phenyl)thiazol-2-amine], the “Stabilty” value [1] was “yes” and the pEC50 [2] was 7.22.

In the case of `NS(=O)(=O)c1ccc(Nc2nc(-c3ccncc3)c(CO)s2)cc1` [SR-28550, 4-((5-(Hydroxymethyl)-4-(pyridin-4-yl)thiazol-2-yl)amino)benzenesulfonamide], the “Stabilty” value [1] was “yes” and the pEC50 [2] was 7.15.

In the case of `Cc1cc(-c2nc(Nc3ccc(S(N)(=O)=O)cc3)sc2CO)cc(C)n1` [SR-33798, 4-((4-(2,6-Dimethylpyridin-4-yl)-5-(hydroxymethyl)thiazol-2-yl)amino)benzenesulfonamide], the “Stabilty” value [1] was “yes” and the pEC50 [2] was 7.70.

For `CS(=O)(=O)c1ccc(Nc2nc(-c3ccnc(Cl)c3)cs2)cc1Cl` [SR-33129, N-(3-chloro-4-(methylsulfonyl)phenyl)-4-(2-chloropyridin-4-yl)thiazol-2-amine], the “Stabilty” value [1] was “yes” and the pEC50 [2] was 7.19.

In the case of `CS(=O)(=O)c1ccc(Nc2nc(-c3ccnc(Cl)c3)cs2)cc1C(F)(F)F` [SR-34982, 4-(2-Chloropyridin-4-yl)-N-(4-(methylsulfonyl)-3-(trifluoromethyl)phenyl)thiazol-2-amine], the “Stabilty” value [1] was “yes” and the pEC50 [2] was 6.92.

With `COc1cc(-c2nc(Nc3ccc(S(N)(=O)=O)cc3)sc2CO)cc(OC)n1` [SR-33797, 4-((4-(2,6-Dimethoxypyridin-4-yl)-5-(hydroxymethyl)thiazol-2-yl)amino)benzenesulfonamide] the “Stabilty” value [1] was “yes” and the pEC50 [2] was 7.35.

In the case of `Cc1cc(-c2csc(Nc3ccc(S(C)(=O)=O)cc3)n2)cc(C)n1` [SR-33786, 4-(2,6-Dimethylpyridin-4-yl)-N-(4-(methylsulfonyl)phenyl)thiazol-2-amine], the “Stabilty” value [1] was “yes” and the pEC50 [2] was 7.70.

With `NS(=O)(=O)c1ccc(Nc2nc(-c3ccnc(Cl)c3)c(CO)s2)cc1` [SR-33525, 4-((4-(2-Chloropyridin-4-yl)-5-(hydroxymethyl)thiazol-2-yl)amino)benzenesulfonamide] the “Stabilty” value [1] was “yes” and the pEC50 [2] was 7.19.

For `CNS(=O)(=O)c1ccc(-c2csc(Nc3ccc(S(C)(=O)=O)c(Cl)c3)n2)cc1` [SR-35736, 4-(2-((3-Chloro-4-(methylsulfonyl)phenyl)amino)thiazol-4-yl)-N-methylbenzenesulfonamide], the “Stabilty” value [1] was “yes” and the pEC50 [2] was 8.30.

In the case of `Cc1cc(-c2nc(Nc3ccc(S(C)(=O)=O)cc3)sc2CCl)ccn1` [SR-34893, 5-(Chloromethyl)-4-(2-methylpyridin-4-yl)-N-(4-(methylsulfonyl)phenyl)thiazol-2-amine], the “Stabilty” value [1] was “yes” and the pEC50 [2] was 6.40.

With `COc1cc(-c2csc(Nc3ccc(S(C)(=O)=O)cc3)n2)cc(OC)n1` [SR-33789, 4-(2,6-Dimethoxypyridin-4-yl)-N-(4-(methylsulfonyl)phenyl)thiazol-2-amine] the “Stabilty” value [1] was “yes” and the pEC50 [2] was 6.52.

In the case of `Cc1cc(-c2csc(Nc3ccc(S(C)(=O)=O)c(F)c3)n2)cc(C)n1` [SR-34974, 4-(2,6-Dimethylpyridin-4-yl)-N-(3-fluoro-4-(methylsulfonyl)phenyl)thiazol-2-amine], the “Stabilty” value [1] was “yes” and the pEC50 [2] was 7.00.

With `CS(=O)(=O)c1ccc(Nc2nc(-c3ccc(S(C)(=O)=O)cc3)cs2)cc1` [SR-35730, N,4-bis(4-(methylsulfonyl)phenyl)thiazol-2-amine] the “Stabilty” value [1] was “yes” and the pEC50 [2] was 8.40.
